Columns and labels:
[1] = target: Insulin-like growth factor 1 receptor (Homo sapiens, UniProt P08069)
[2] = target: eIF-2-alpha kinase GCN2 (Homo sapiens, UniProt Q9P2K8, S808G)
[3] = target: T1, Bone morphogenetic protein receptor type-2 (Homo sapiens, UniProt Q13873)
T1 sequence (Q13873 whole entry): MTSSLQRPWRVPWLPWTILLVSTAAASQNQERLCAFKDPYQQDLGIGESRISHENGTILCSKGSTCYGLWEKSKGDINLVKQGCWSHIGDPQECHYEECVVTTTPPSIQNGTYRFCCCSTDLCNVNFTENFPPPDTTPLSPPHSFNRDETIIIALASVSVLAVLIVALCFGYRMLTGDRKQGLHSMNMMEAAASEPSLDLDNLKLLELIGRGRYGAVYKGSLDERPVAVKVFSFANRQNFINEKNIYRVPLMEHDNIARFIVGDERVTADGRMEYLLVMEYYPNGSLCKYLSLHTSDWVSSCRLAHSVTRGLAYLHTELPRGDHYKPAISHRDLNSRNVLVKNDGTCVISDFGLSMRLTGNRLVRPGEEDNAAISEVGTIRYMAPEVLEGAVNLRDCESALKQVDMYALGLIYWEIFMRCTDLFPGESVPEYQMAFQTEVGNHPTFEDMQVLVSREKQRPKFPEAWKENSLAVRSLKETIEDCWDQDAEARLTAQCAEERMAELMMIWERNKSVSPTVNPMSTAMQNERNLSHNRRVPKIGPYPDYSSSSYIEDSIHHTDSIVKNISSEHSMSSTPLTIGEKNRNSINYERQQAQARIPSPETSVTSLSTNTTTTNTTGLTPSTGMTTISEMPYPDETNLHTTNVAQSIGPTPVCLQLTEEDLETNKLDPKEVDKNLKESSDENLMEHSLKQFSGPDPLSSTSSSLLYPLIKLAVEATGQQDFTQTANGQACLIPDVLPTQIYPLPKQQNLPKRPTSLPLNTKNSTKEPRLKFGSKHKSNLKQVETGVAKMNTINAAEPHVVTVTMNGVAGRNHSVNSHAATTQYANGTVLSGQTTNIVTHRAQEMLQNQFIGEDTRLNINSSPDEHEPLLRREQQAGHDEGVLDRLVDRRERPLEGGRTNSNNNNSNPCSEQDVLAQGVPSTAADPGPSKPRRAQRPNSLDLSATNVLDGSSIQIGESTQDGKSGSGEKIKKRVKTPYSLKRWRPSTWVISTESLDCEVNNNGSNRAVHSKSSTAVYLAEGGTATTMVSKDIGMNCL

[4] = target: Mitogen-activated protein kinase 7 (Homo sapiens, UniProt Q13164)
[5] = target: T2, Non-receptor tyrosine-protein kinase TNK1 (Homo sapiens, UniProt Q13470)
T2 sequence (Q13470 whole entry): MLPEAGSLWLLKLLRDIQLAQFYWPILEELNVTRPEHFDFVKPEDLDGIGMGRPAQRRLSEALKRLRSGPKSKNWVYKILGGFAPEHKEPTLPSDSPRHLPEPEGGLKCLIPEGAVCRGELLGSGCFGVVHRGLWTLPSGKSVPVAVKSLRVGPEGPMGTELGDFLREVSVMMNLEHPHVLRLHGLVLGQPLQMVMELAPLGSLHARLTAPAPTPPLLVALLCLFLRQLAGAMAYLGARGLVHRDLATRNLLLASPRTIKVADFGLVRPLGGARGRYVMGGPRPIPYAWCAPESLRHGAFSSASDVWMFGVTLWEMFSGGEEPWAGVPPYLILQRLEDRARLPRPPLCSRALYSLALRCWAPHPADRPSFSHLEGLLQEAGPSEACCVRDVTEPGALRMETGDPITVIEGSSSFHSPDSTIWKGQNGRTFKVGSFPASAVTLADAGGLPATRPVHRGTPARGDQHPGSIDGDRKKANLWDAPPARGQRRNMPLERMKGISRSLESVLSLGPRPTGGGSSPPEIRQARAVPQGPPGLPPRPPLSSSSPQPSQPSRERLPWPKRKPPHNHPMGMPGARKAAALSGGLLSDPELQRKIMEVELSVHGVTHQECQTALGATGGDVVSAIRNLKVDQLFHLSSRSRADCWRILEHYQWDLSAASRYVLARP

[6] = target: RAF proto-oncogene serine/threonine-protein kinase (Homo sapiens, UniProt P04049)
[7] = target: T3, Cyclin-dependent kinase 11A (Homo sapiens, UniProt Q9UQ88)
T3 sequence (Q9UQ88 whole entry): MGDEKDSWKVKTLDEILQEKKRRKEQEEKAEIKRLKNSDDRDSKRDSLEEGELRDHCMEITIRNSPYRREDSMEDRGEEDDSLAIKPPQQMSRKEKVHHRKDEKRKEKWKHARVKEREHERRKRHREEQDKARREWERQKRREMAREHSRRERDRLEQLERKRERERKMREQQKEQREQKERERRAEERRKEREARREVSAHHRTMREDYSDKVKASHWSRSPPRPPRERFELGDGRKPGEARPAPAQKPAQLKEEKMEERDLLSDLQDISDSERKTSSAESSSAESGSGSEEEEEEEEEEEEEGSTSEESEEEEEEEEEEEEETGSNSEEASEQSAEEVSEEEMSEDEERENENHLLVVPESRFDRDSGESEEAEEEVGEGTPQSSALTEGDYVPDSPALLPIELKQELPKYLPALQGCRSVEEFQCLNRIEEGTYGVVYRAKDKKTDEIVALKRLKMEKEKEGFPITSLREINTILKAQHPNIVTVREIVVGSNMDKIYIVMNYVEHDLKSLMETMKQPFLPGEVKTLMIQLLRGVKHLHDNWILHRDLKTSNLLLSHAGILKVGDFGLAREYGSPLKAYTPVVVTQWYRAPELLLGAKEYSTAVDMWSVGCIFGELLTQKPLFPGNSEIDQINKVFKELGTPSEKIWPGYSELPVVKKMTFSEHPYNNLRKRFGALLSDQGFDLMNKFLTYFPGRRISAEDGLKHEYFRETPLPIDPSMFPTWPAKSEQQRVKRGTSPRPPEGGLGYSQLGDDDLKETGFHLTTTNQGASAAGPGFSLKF

[8] = target: Serine/threonine-protein kinase SIK2 (Homo sapiens, UniProt Q9H0K1)
[9] = target: Tyrosine-protein kinase FRK (Homo sapiens, UniProt P42685)
Tyrosine-protein kinase FRK, sequence (P42685 whole entry): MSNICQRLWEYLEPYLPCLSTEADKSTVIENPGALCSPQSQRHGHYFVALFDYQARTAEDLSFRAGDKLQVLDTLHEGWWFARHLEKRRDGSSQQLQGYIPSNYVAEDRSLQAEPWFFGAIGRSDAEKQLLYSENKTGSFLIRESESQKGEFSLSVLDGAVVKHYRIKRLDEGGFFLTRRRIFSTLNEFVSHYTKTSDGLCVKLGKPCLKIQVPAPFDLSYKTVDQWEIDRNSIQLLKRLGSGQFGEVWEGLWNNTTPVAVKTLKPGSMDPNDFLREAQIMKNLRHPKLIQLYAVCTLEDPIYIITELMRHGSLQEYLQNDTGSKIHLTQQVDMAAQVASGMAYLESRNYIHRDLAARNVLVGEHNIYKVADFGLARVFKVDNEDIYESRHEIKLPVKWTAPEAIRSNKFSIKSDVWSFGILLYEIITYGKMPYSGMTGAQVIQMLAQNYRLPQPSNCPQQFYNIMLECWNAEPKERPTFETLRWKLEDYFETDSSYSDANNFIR

RAF proto-oncogene serine/threonine-protein kinase, sequence (P04049 whole entry): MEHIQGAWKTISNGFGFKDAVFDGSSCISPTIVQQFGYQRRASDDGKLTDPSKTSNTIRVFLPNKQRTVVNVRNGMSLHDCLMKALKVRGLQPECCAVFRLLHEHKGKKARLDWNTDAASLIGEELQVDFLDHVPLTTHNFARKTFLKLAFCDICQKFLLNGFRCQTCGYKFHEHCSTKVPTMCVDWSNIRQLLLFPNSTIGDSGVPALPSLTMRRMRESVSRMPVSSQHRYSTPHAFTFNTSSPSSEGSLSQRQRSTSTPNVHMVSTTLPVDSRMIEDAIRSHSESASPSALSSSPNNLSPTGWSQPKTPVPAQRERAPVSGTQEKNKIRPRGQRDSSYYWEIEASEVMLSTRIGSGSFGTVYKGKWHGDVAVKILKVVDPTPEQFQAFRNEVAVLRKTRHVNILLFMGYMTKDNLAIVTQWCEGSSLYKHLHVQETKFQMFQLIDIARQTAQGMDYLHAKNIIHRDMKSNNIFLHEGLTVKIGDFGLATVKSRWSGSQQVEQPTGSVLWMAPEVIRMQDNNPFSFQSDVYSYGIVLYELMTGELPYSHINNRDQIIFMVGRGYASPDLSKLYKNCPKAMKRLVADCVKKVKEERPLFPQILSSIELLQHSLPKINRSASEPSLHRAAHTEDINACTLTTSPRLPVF
Serine/threonine-protein kinase SIK2, sequence (Q9H0K1 whole entry): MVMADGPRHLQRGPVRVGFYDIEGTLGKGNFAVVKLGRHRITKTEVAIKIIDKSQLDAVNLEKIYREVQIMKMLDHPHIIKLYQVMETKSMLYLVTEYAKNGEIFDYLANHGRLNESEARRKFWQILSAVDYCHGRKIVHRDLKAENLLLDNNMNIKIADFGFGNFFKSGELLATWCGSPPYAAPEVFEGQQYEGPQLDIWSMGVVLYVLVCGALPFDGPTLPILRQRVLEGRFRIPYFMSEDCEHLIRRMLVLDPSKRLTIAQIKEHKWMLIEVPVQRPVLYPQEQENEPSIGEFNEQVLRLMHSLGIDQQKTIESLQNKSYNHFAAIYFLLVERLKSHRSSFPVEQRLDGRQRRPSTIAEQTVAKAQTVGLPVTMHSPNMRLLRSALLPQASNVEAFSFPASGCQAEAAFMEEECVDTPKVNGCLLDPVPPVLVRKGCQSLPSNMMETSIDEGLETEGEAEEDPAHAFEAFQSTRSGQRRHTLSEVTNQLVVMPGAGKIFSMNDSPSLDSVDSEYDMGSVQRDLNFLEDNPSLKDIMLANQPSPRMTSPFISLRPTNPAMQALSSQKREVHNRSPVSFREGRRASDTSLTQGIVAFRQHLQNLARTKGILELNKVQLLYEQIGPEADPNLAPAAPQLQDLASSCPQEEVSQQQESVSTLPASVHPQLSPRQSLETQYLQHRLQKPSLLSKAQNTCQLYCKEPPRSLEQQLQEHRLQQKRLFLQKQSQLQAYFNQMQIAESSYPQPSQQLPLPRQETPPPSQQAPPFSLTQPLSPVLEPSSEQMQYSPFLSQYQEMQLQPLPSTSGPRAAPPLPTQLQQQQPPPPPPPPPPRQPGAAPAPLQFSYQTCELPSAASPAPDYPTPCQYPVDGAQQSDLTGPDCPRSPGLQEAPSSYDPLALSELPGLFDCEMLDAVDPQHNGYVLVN
Insulin-like growth factor 1 receptor, sequence (P08069 31-736 limits assumed): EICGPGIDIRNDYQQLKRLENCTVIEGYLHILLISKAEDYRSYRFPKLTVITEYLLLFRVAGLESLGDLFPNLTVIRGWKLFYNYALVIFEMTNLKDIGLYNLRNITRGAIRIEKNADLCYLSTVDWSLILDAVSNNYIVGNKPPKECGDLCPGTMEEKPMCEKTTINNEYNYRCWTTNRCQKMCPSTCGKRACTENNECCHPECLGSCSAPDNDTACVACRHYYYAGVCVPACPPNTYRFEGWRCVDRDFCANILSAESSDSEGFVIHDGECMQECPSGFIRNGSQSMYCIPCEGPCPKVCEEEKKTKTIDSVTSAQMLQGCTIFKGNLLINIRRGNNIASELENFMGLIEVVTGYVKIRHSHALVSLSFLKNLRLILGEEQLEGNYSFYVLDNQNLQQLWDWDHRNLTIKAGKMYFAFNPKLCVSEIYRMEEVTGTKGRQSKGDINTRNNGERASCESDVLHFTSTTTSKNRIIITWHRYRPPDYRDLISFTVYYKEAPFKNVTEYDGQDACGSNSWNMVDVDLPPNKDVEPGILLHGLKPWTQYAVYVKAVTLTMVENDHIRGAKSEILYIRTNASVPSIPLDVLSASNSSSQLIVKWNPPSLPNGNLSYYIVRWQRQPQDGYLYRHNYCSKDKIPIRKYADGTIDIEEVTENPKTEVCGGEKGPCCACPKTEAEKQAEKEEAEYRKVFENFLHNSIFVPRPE
Insulin-like growth factor 1 receptor, sequence (P08069 741-1367 limits assumed): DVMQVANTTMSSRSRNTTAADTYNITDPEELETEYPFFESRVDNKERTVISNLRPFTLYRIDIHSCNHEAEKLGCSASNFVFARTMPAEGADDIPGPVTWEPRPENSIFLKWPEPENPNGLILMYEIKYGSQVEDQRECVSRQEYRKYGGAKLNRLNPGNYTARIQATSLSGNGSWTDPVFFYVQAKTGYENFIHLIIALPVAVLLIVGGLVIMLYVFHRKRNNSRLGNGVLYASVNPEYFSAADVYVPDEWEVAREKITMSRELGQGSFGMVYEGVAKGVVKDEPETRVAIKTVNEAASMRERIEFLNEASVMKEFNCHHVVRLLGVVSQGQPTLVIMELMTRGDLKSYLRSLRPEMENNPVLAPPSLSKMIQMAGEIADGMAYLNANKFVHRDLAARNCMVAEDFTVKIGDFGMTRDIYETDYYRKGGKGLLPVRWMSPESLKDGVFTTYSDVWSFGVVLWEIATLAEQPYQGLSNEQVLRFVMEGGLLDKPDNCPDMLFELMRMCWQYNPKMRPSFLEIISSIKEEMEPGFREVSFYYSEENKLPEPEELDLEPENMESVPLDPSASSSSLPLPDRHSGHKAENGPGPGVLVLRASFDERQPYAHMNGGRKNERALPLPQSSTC
Mitogen-activated protein kinase 7, sequence (Q13164 whole entry): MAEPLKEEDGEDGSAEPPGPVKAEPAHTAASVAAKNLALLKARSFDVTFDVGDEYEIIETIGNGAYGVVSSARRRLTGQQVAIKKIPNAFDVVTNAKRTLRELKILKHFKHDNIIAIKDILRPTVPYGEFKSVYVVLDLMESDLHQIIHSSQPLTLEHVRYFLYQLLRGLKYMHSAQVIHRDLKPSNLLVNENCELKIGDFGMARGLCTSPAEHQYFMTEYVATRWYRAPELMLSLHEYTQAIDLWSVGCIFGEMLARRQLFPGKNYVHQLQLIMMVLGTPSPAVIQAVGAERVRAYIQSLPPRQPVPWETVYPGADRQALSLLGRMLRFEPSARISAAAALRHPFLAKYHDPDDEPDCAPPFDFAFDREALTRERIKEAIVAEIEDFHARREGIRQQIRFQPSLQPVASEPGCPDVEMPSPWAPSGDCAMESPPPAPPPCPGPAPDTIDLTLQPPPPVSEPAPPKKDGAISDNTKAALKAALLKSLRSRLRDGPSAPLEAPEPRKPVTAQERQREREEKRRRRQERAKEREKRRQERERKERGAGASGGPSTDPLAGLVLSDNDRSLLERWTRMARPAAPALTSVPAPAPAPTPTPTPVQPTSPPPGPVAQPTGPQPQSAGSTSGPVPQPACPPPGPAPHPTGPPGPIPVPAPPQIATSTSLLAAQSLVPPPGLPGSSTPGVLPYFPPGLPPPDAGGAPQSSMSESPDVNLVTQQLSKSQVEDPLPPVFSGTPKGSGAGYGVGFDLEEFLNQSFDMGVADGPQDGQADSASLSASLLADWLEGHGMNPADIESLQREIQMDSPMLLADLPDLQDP

With `CCOc1cc2ncc(C#N)c(Nc3ccc(F)c(Cl)c3)c2cc1NC(=O)/C=C/CN(C)C` [PELITINIB] the Kd [1] was > 10 µM, the Kd [2] was 0.29 µM and the Kd [3] was > 10 µM. The Kd [4] was > 10 µM, the Kd [5] was > 10 µM and the Kd [6] was > 10 µM. The Kd [7] was > 10 µM.

For `COCC(=O)NC/C=C/c1ccc2ncnc(Nc3ccc(Oc4ccc(C)nc4)c(C)c3)c2c1` [CP-724714], the Kd [1] was > 10 µM, the Kd [2] was > 10 µM and the Kd [3] was > 10 µM. The Kd [4] was > 10 µM, the Kd [5] was > 10 µM and the Kd [8] was > 10 µM. The Kd [6] was > 10 µM, the Kd [9] was > 10 µM and the Kd [7] was > 10 µM.

With `NC(=O)c1ccc(-c2nc(-c3ccc4c(c3)OCO4)c(-c3ccccn3)[nH]2)cc1` [SB-431542] the Kd [1] was > 10 µM, the Kd [2] was > 10 µM and the Kd [3] was > 10 µM. The Kd [4] was > 10 µM, the Kd [5] was > 10 µM and the Kd [8] was > 10 µM. The Kd [6] was > 10 µM, the Kd [9] was > 10 µM and the Kd [7] was > 10 µM.

With `Nc1nc(Nc2ccc(S(N)(=O)=O)cc2)nn1C(=O)c1c(F)cccc1F` [JNJ-7706621] the Kd [2] was 3.9 µM, the Kd [6] was > 10 µM and the Kd [9] was > 10 µM.

For `Oc1ccc(-c2nc(-c3ccncc3)c(-c3ccc(F)cc3)[nH]2)cc1` [SB-202190], the Kd [1] was > 10 µM, the Kd [2] was > 10 µM and the Kd [3] was > 10 µM. The Kd [4] was > 10 µM, the Kd [5] was > 10 µM and the Kd [8] was > 10 µM. For the same compound, the Kd [9] was 3.1 µM and the Kd [7] was > 10 µM.
